Assay results as given in patent EP4813381A1, “PHARMACEUTICAL USE OF GUAIANE SESQUITERPENE DERIVATIVE” (Nanjing University Of Chinese Medicine, priority 2023, dated 2025).

Legend:
[1] = system: MC903-induced atopic dermatitis (AD); assay: MC903-induced ear atopic dermatitis mouse model, Compound 1 ointment: ear thickness and dermatitis score; assay type: in vivo, mice; settings: for ear thickness: 1% ointment
Protocol: Weigh white petrolatum, light liquid paraffin, glyceryl monostearate, ethylparaben, and cetyl alcohol. Heat to 65 °C while stirring until dissolved. Slowly add the dissolved active pharmaceutical ingredient (API) while continuing to stir until uniformly mixed. Set aside. • (2) Aqueous Phase Preparation: […] Slowly add the aqueous phase to the oil phase while maintaining 65 °C, homogenize, and continue stirring for 30 min; • (4) Cooling: Stop heating, continue stirring, gradually reduce to room temperature, cool to form an ointment, and fill containers. […] Dissolve these substances in a small amount of propylene glycol, then place the resulting solution into the aforementioned pre-cooled blank ointment base. […] Skin Lesion Severity Score: […] Statistical analysis was performed on the data.

[2] = system: MC903-induced atopic dermatitis (AD); assay: MC903-induced AD model on the dorsum of mice, Compound 1 ointment: skin thickness and dermatitis score; assay type: in vivo; set-up: Skin thickness: unit not given here
Protocol: Weigh white petrolatum, light liquid paraffin, glyceryl monostearate, ethylparaben, and cetyl alcohol. Heat to 65 °C while stirring until dissolved. Slowly add the dissolved active pharmaceutical ingredient (API) while continuing to stir until uniformly mixed. Set aside. • (2) Aqueous Phase Preparation: […] Slowly add the aqueous phase to the oil phase while maintaining 65 °C, homogenize, and continue stirring for 30 min; • (4) Cooling: Stop heating, continue stirring, gradually reduce to room temperature, cool to form an ointment, and fill containers. […] Dissolve these substances in a small amount of propylene glycol, then place the resulting solution into the aforementioned pre-cooled blank ointment base. […] Establishment of the AD Model on the Dorsum of Mice and Drug Administration: […] Except for the Normal group, all other groups underwent AD modeling: 48 hours prior to the experiment, hair on the dorsal neck region was meticulously removed using clippers and depilatory cream. […] Model and control group mice received daily application of blank ointment. Twenty-four hours after completing the 14-day modeling period, photographs of skin lesions were taken, and skin lesion and blood samples were collected. Skin Lesion Severity Score: […] Statistical analysis was performed on the data.

[3] = system: Th2-related factors Il4, Il13, Il31 and inflammatory factors Tslp, Tnf, Il1; assay: MC903-induced ear atopic dermatitis mouse model, Compound 1 ointment: Q-PCR of ear; assay type: in vivo; set-up: unit not given here; settings: ear mRNA, AD mice, 1% ointment
Protocol: Except for the Normal group, all other groups underwent AD modeling: 20 µL of MC903 solution (also known as calcipotriol, purchased from Shanghai Yuanye Biotechnology Co., Ltd., used for inducing atopic models) was applied to each mouse's ears once daily for 14 consecutive days to induce the atopic dermatitis model. […] Measure ear thickness changes every 2 days using an electronic caliper before modeling and after treatment initiation.

[4] = system: Rat mast cells (RBL-2H3); assay: Mast cell degranulation test (anti-DNP IgE / DNP-HSA); assay type: cell-based; settings: RBL-2H3, IgE+HSA, 4 h, 1 µM
Protocol: Rat mast cells (RBL-2H3) were cultured routinely in DMEM medium containing 10% FBS within a 5% CO2 incubator. Upon reaching 70-80% confluence, cells were uniformly seeded at a density of 1 × 10^5 cells/mL into 6-well plates (2 mL per well), divided into the following groups: Normal, IgE+HSA, Compound 1 (0.01, 0.1, 1, 10 µM). Mast cells were sensitized with 500 µg/L anti-DNP IgE for 12 h. washed with PBS, and cultured for an additional 12 h with 100 µg/L DNP-HSA. Compound 1 at the specified concentrations was then added. […]

[5] = system: inflammatory factors Tslp, Tnf and Th2-associated factors Il4, Il13, Il31; assay: MC903-induced ear atopic dermatitis mouse model, oral Compound 20: Q-PCR of ear; settings: ear mRNA, AD mice, 5 mg/kg
[6] = system: Human keratinocytes (Hacat); assay: Hyaluronic acid and hyaluronidase levels in UVB-irradiated human keratinocytes; assay type: cell-based; settings: UVB 90 mJ/cm^2, 24 h, 1 µM
Protocol: Human keratinocytes (Hacat) were cultured routinely in DMEM medium containing 10% FBS within a 5% CO2 incubator.

[7] = system: inflammatory cytokines (TNF, IL-6, IL-1); assay: LPS mouse sepsis model: Q-PCR of inflammatory factor mRNA in lung, liver and kidney; assay type: in vivo, C57BL/6 mice; settings: sepsis mice, 5 mg/kg
Excerpt: Gently pipette to mix the above reagents. The reaction conditions are as follows:
Detailed information is as follows:

[8] = system: MC903-induced atopic dermatitis (AD); assay: MC903-induced ear atopic dermatitis mouse model, oral Compound 20: dermatitis score, ear thickness, serum IgE; settings: 5 mg/kg

`C[C@@H]1C[C@H]2[C@@H]3CCC4=CC(=O)C=C[C@]4(C)[C@@]3(F)[C@@H](O)C[C@]2(C)[C@@]1(O)C(=O)CO` [Dex, Dexamethasone, reference compound] showed an ear thickness ([1]; Day 1) of 0.15±0.00 mm, an ear thickness ([1]; Day 3) of 0.18±0.00 mm and an ear thickness ([1]; Day 5) of 0.22±0.00 mm. The ear thickness ([1]; Day 7) was 0.24±0.01 mm, the ear thickness ([1]; Day 8) was 0.24±0.00 mm and the ear thickness ([1]; Day 9) was 0.24±0.01 mm. The ear thickness ([1]; Day 10) was 0.25±0.01 mm, the ear thickness ([1]; Day 11) was 0.26±0.01 mm and the ear thickness ([1]; Day 12) was 0.28±0.00 mm. The ear thickness ([1]; Day 13) was 0.27±0.01 mm, the ear thickness ([1]; Day 14) was 0.26±0.01 mm and the “Dermatitis Score” value ([1]; ear, 1% ointment for 7 days, score max 12) was 3.50±0.22. The “Dermatitis Score” value ([2]; back, 1% ointment for 7 days, score max 12) was 4.17±0.31, the Skin thickness ([2]; dorsal region, AD mice, 1% ointment) was 30.44±0.62 and the TSLP [3] was 1.30 ±0.17. It also gave a Tnf [3] of 1.38 ±0.22, a β-Glucosaminidase [4] of 9.78 ± 0.01 ng/mL and a TSLP [5] of 2.13±0.26. The Tnf [5] was 2.30±0.36, the Hyaluronidase [6] was 87.14 ± 9.63 ng/mL and the Tnf ([7]; kidney mRNA (relative, Gapdh)) was 6.62±0.68. The Tnf ([7]; liver mRNA (relative, Gapdh)) was 7.04±0.77, the Tnf ([7]; lung mRNA (relative, Gapdh)) was 8.99 ± 0.76 and the atopic dermatitis score ([8]; Day 1) was 0.00±0.00. The ear thickness ([8]; Day 1) was 0.20±0.00 mm, the atopic dermatitis score ([8]; Day 3) was 0.67±0.21 and the ear thickness ([8]; Day 3) was 0.23±0.00 mm. For the same compound, the atopic dermatitis score ([8]; Day 5) was 1.50±0.22, the ear thickness ([8]; Day 5) was 0.25±0.00 mm and the atopic dermatitis score ([8]; Day 7) was 2.00±0.26. The ear thickness ([8]; Day 7) was 0.26±0.00 mm, the atopic dermatitis score ([8]; Day 8) was 2.83±0.31 and the ear thickness ([8]; Day 8) was 0.26±0.00 mm. It also gave an atopic dermatitis score ([8]; Day 9) of 3.00±0.00, an ear thickness ([8]; Day 9) of 0.27±0.00 mm and an atopic dermatitis score ([8]; Day 10) of 3.17±0.17. For the same compound, the ear thickness ([8]; Day 10) was 0.28±0.00 mm, the atopic dermatitis score ([8]; Day 11) was 3.50±0.22 and the ear thickness ([8]; Day 11) was 0.27±0.00 mm. The atopic dermatitis score ([8]; Day 12) was 3.00±0.26, the ear thickness ([8]; Day 12) was 0.27±0.00 mm and the atopic dermatitis score ([8]; Day 13) was 2.67±0.21. It also gave an ear thickness ([8]; Day 13) of 0.27±0.00 mm, an atopic dermatitis score ([8]; Day 14) of 2.00±0.26 and an ear thickness ([8]; Day 14) of 0.26±0.00 mm. For the same compound, the IgE ([8]; serum, AD mice) was 191.65 ± 39.26 ng/mL.
